Laboratory results as given in ChEMBL document CHEMBL5137114, “Discovery of IHMT-MST1-58 as a Novel, Potent, and Selective MST1 Inhibitor for the Treatment of Type 1/2 Diabetes” (J Med Chem, 2022).
Activity calls are given as the source filed them. No cut-off for these calls is given here.

Assays:
[1] = Cytotoxicity against rat RIN-m5F cells at 10 uM incubated for 72 hrs by Cell Titer-Glo assay; format: toxicity, cell-based
Mus musculus [2] = assay: Antidiabetic activity against multi low dose STZ-induced C57BL/6J mouse model of type 1 diabetes assessed as increase in water consumption at 50 mg/kg, po administered upto 79 days in presence of metformin; format: functional, organism-based; settings: time <= 79.0 day
[3] = Half life in Sprague-Dawley rat at 1 mg/kg, iv measured up to 12 hrs by LC-MS/MS analysis; format: ADME, organism-based; settings: in vivo
[4] = Oral bioavailability in Sprague-Dawley rat at 10 mg/kg measured up to 24 hrs by LC-MS/MS analysis; format: ADME, organism-based; settings: in vivo
[5] = system: Serine/threonine-protein kinase 4 (Rattus norvegicus); assay: Inhibition of INF-gamma-stimulated MST1 in rat INS1 cells assessed as reduction in MOB1 autophosphorylation incubated for 12 hrs by Western blotting analysis; settings: dose 0.1-10 µM, DDE = dose-dependent effect
RIN-m5F = assay: Protection against TNF-alpha-induced cell damage in rat RIN-m5F cells assessed as increase in cell survival at 0.03 to 0.3 uM incubated for 48 hrs by Cell Titer-Glo assay; format: functional, cell-based; settings: dose 0.03-0.3 µM
[6] = Half life in Beagle dog at 1 mg/kg, iv measured up to 12 hrs by LC-MS/MS analysis; format: ADME, organism-based, Canis lupus familiaris; settings: in vivo
[7] = Cmax in mouse plasma at 50 mg/kg, po measured up to 24 hrs by LC-MS/MS analysis; format: ADME, organism-based; set-up: dose 50 mg/kg, time < 24 hrs, route po
[8] = system: Serine/threonine-protein kinase 4 (Rattus norvegicus); assay: Inhibition of TNF-alpha-stimulated MST1 phosphorylation in rat INS1 cells incubated for 12 hrs by Western blotting analysis; settings: dose 0.1-10 µM, DDE = dose-dependent effect
RAW264.7 [9] = assay: Inhibition of MST1 in mouse RAW264.7 cells assessed as reduction in H2O2-stimulated MOB1 phosphorylation at T35 residue preincubated for 2 hrs followed by H2O2 addition for 30 mins by Western blotting analysis; format: cell-based; settings: dose 0.1-10 µM, time 2.5 hrs, DDE = dose-dependent effect
Mus musculus [10] = assay: Antidiabetic activity against multi low dose STZ-induced C57BL/6J mouse model of type 1 diabetes assessed as food intake at 50 mg/kg, po administered for 1 to 2 days in presence of metformin (reference value: 4.5 g/day); format: functional; settings: time 1-2 day
[11] = Cmax in Beagle dog at 1 mg/kg, iv measured up to 12 hrs by LC-MS/MS analysis; format: ADME, organism-based, Canis lupus familiaris; set-up: dose 1 mg/kg, time < 12 hrs, route iv; settings: in vivo
[12] = molecular target: T1, Serine/threonine-protein kinase 4 (Homo sapiens, UniProt Q13043); assay: Inhibition of recombinant full length N-terminal GST -tagged human MST1 expressed in baculovirus infected Sf9 insect cells using KKSRGDYMTMQIG as substrate incubated for 1 hr in presence of ATP by ADP-Glo luminescent assay
T1 sequence (Q13043 whole entry): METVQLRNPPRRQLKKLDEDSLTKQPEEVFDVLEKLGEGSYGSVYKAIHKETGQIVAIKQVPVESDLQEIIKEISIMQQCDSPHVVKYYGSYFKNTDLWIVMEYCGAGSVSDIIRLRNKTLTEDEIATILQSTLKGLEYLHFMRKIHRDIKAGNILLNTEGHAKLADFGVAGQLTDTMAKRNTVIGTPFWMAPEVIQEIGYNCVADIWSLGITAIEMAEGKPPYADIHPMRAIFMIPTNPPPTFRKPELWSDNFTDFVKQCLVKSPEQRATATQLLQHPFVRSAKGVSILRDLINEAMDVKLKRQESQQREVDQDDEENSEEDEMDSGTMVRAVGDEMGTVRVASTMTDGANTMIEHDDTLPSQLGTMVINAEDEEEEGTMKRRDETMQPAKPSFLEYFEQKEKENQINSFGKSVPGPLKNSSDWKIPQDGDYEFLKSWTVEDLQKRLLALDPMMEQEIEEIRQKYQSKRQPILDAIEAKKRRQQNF

[13] = AUC (0 to t) in mouse Pancreas at 50 mg/kg, po measured up to 24 hrs by LC-MS/MS analysis; format: ADME, organism-based; set-up: time < 24 hrs, dose 50 mg/kg, route po
[14] = system: Serine/threonine-protein kinase 4 (Rattus norvegicus); assay: Inhibition of TNF-alpha-stimulated MST1 in rat RIN-m5F cells assessed as reduction in MOB1 autophosphorylation incubated for 12 hrs by Western blotting analysis; settings: dose 0.1-10 µM, DDE = dose-dependent effect
[15] = system: Serine/threonine-protein kinase 4 (Rattus norvegicus); assay: Inhibition of IL-1beta[…]-stimulated MST1 in rat RIN-m5F cells assessed as reduction in MOB1 autophosphorylation incubated for 12 hrs by Western blotting analysis; settings: dose 0.1-10 µM, DDE = dose-dependent effect
Mus musculus [16] = assay: Antidiabetic activity in 12 to 14 hrs fasted high fat diet-STZ-induced C57BL/6J mouse model of type 2 diabetes assessed as reduction on blood glucose at 50 mg/kg, po qd pretreated with compound followed by glucose challenge measured upto 180 mins by IPGTT assay; format: functional, organism-based
[17] = Cmax in Sprague-Dawley rat at 10 mg/kg, po measured up to 24 hrs by LC-MS/MS analysis; format: ADME, organism-based; set-up: dose 10 mg/kg, time < 24 hrs, route po; settings: in vivo
Mus musculus [18] = assay: Antidiabetic activity against multi low dose STZ-induced C57BL/6J mouse model of type 1 diabetes assessed as food intake at 50 mg/kg, po administered for 78 to 79 days in presence of metformin (reference value: 4.7 g/day); format: functional; settings: time 78-79 day
[19] = system: Serine/threonine-protein kinase 4 (Rattus norvegicus); assay: Inhibition of IL-1beta-stimulated MST1 phosphorylation in rat INS1 cells incubated for 12 hrs by Western blotting analysis; settings: dose 0.1-10 µM, DDE = dose-dependent effect
INS1 = assay: Protection against IL-1beta-induced cell damage in rat INS1 cells assessed as increase in cell survival at 0.03 to 0.3 uM incubated for 48 hrs by Cell Titer-Glo assay; format: functional, cell-based; settings: dose 0.03-0.3 µM
RAW264.7 [20] = assay: Inhibition of MST1 in mouse RAW264.7 cells assessed as reduction in H2O2-stimulated MST1/MST2 autophosphorylation at T183/T180 residues preincubated for 2 hrs followed by H2O2 addition for 30 mins by Western blotting analysis; format: cell-based; settings: dose 0.1-10 µM, time 2.5 hrs, DDE = dose-dependent effect

half-life [3]: 3.51 h | F [4]: 73.3% | inhibition [5]: Dde | half-life [6]: 6.47 h | Cmax [7]: 3990 ng/mL | inhibition [8]: Dde | Cmax [11]: 467 ng/mL | IC50 [12]: 23 nM | AUC(0-t) at 24 h [13]: 51400 ng·h/mL | inhibition [14]: Dde | inhibition [15]: Dde | Cmax [17]: 1720 ng/mL | inhibition [19]: Dde
Structure (SMILES): Cc1ccccc1C1C(=O)N(C)c2cnc(Nc3ccc(S(N)(=O)=O)cc3)nc2N1C (configuration not stated)
Activity [1]: Non-Toxic | Activity (Mus musculus [2]): Active | Activity (RIN-m5F): Active | inhibition (RAW264.7 [9]): Dde | Activity (Mus musculus [10]): 5.4 g/day | Activity (Mus musculus [16]): Active | Activity (Mus musculus [18]): 4.1 g/day | Activity (INS1): Active | inhibition (RAW264.7 [20]): Dde
